PubChem BioAssay (NCI)
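48-hour exposure; five concentrations; linearly interpolated endpoints. Here, GI50 denotes the concentration required for 50% inhibition of growth. TGI is the concentration that stops growth completely.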

Tests used:
Assay in all cases: DTP human tumour cell line panel, 48 h
A549 NSCLC = system: A549 NSCLC
ACHN renal = system: ACHN renal
HOP-92 NSCLC = system: HOP-92 NSCLC
KM12 colon = system: KM12 colon
MDA-MB-231 breast = system: MDA-MB-231 breast
NCI-H226 lung = system: NCI-H226 lung
NCI-H23 lung = system: NCI-H23 lung
OVCAR-4 ovarian = system: OVCAR-4 ovarian
OVCAR-5 ovarian = system: OVCAR-5 ovarian
U251 CNS = system: U251 CNS

| SMILES | GI50 (A549 NSCLC) [µM] | TGI (A549 NSCLC) [µM] | GI50 (ACHN renal) [µM] | TGI (ACHN renal) [µM] | GI50 (HOP-92 NSCLC) [µM] | TGI (HOP-92 NSCLC) [µM] | GI50 (KM12 colon) [µM] | TGI (KM12 colon) [µM] | GI50 (MDA-MB-231 breast) [µM] | TGI (MDA-MB-231 breast) [µM] | GI50 (NCI-H226 lung) [µM] | TGI (NCI-H226 lung) [µM] | GI50 (NCI-H23 lung) [µM] | TGI (NCI-H23 lung) [µM] | GI50 (OVCAR-4 ovarian) [µM] | TGI (OVCAR-4 ovarian) [µM] | GI50 (OVCAR-5 ovarian) [µM] | TGI (OVCAR-5 ovarian) [µM] | GI50 (U251 CNS) [µM] | TGI (U251 CNS) [µM] |
| --- | --- | --- | --- | --- | --- | --- | --- | --- | --- | --- | --- | --- | --- | --- | --- | --- | --- | --- | --- | --- |
| CSc1ccc(C(=O)/C=C/c2ccc(F)cc2)cc1 | 64.4 | > 100 | > 100 | > 100 | 75.9 | > 100 | 70.9 | > 100 | 74.6 | > 100 | 57.4 | > 100 | > 100 | > 100 | 76.2 | > 100 | 99.6 | > 100 | 32.9 | > 100 |
| C=C1C(=O)O[C@H]2[C@H]1CC/C(COC(=O)NCc1cccc(OC)c1)=C\CC[C@@]1(C)O[C@@H]21 | 3.1 | 12.8 | 1.17 | 2.41 | 1.32 | 2.96 | 9.98 | 25.3 | 1.95 | 4.22 | 12.1 | 27.8 | 3.07 | 10.3 | 2.61 | 11.1 | 2.17 | 5.04 | 3.65 | 14.9 |
| COc1cc(C(=O)/C=C/c2c(-c3cccs3)nc3ccccn23)cc(OC)c1OC | 2.04 | 5.89 | 2.09 | 5.09 | 0.289 | 2.78 | 1.32 | 2.79 | 3.08 | 26.2 | 2.04 | 4.3 | 2.2 | 5.33 | 3.13 | 21.6 | 2.64 | 5.82 | 1.66 | 6.03 |
| COc1ccc2nc(C3=CN(C4OC(CO)C(O)C(O)C4O)C4C=CC=CC34)sc2c1 (stereo not given) | 28.3 | > 100 | 19 | 46.1 | 67.4 | > 100 | 24.1 | 75.7 | 23.9 | 61.6 | 21.4 | 79.3 | 33.9 | > 100 | > 100 | > 100 | 26.8 | 83.2 | 28.5 | > 100 |
| Oc1oc(-c2ccccc2)nc1/C=C1/C=NN=N1 | – | > 100 | – | > 100 | – | > 100 | – | > 100 | – | > 100 | – | > 100 | – | > 100 | – | > 100 | – | > 100 | – | > 100 |
| COC(=O)C1=C2CO[C@@H]3C[C@H]4C(C)(C)CCC[C@]4(C)C(=CC1)[C@]23C | 36.8 | > 100 | 72 | > 100 | 8.2 | 44.7 | 21.4 | 74.1 | 83 | > 100 | 56.5 | > 100 | 29.8 | > 100 | 62.1 | > 100 | 21.8 | > 100 | 43.4 | > 100 |
| CO[C@H]1/C=C/C[C@H](C)[C@@H](C)S(=O)(=O)NC(=O)c2ccc3c(c2)N(C[C@@H]2CC[C@H]21)C[C@@]1(CCCc2cc(Cl)ccc21)CO3 | 3.29 | 12.7 | 3.39 | 11.8 | 1.55 | 3.4 | 3.17 | 11 | 2.11 | 5.64 | 2.66 | 7.4 | 1.58 | 4.12 | 2.46 | 12.1 | 2.91 | 11.9 | 2.47 | 6.86 |
| Cc1cc(S(=O)(=O)Nc2nc3ccsc3c(=O)n2Cc2ccccc2)c(S)cc1Cl | 34.5 | > 100 | 57.5 | > 100 | 87.6 | > 100 | 20.1 | 48.2 | 30.3 | 72.5 | 34.5 | 93.6 | 24.9 | 57.5 | 44 | > 100 | 32.9 | 97.5 | 35.9 | > 100 |
| C#CCOc1cccc(Nc2ncnc3c2ncn3C2CCN(C(=O)CCl)C2)c1 (stereo not given) | > 100 | > 100 | 17.7 | 31.8 | 19.1 | 39.6 | 23.4 | 58.2 | 18.6 | 35.9 | 29.5 | > 100 | 18.4 | 41.3 | 19.4 | 45 | 16.8 | 31.6 | 18.1 | 35.1 |
